What was measured:
[1] = biological target: T1, 5-lipoxygenase (Rattus norvegicus, UniProt P12527); assay: inhibition of 5-HETE production in broken RBL-1 cells (isolated enzyme); format: biochemical; settings: Table A, broken RBL-1 cell supernatant; for Isolated Enzyme % Inhib. / inhibition at 3 µM: 3 μM; for inhibition at 3 µM: read-out: Isolated Enzyme % Inhib.
T1 construct: The pellet was discarded and the supernatant was saved as the source of enzymes; endogenous in cells; host or cells: RBL-1 (rat basophilic leukemia) cells, homogenate supernatant
T1 sequence (P12527 1-673): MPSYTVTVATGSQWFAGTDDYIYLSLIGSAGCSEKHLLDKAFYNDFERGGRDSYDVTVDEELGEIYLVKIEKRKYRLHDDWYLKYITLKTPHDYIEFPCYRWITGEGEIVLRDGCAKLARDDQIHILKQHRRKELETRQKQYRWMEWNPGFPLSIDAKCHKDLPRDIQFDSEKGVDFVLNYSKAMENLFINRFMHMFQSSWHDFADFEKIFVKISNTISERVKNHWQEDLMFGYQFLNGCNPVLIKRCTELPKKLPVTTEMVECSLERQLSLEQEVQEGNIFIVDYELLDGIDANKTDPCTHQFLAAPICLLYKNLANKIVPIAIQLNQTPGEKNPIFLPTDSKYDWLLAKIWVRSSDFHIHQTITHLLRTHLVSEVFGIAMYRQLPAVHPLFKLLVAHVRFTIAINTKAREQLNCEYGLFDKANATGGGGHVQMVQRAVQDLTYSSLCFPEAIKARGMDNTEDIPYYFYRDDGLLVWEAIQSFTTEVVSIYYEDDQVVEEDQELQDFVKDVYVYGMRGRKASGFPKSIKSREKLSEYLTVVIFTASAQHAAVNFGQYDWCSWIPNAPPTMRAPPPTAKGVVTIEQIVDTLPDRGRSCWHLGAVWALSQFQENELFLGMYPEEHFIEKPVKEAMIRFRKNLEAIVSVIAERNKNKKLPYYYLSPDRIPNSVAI
Protocol: (§1) The compounds of the invention were evaluated for their ability to inhibit the production of the arachidonic acid product 5-HETE in broken and whole cell models. Since this is the first step of leukotriene biosynthesis, a reduction in the production of 5-HETE is directly attributable to inhibition of 5-lipoxygenase, where the standard concentration is 3.0 μM. If the IC50 of the whole cell assay is smaller than the IC50 of the broken cell model, it is an indication that the compounds are inhibiting the cooperation of FLAP and 5-lipoxygenase.
Rat basophilic leukemia cells (RBL-1; 5×10^7 viable cells/mL) were disrupted by homogenization on ice (four 20 sec bursts) with a Brinkman polytron. Complete cell breakage was verified microscopically. The homogenate was then centrifuged at 9,220×g for 48 minutes at 4° C. The pellet was discarded and the supernatant was saved as the source of enzymes. The supernatant was pre-incubated for five minutes at 37° C. in the presence of 2 mM of CaCl2 and compound or vehicle (1% DMSO). The conversion of AA into products by CO and LO was initiated by adding 10 μL (50 μCi) of 1-^14 C-AA to each tube and incubated at 37° C. for 20 minutes. The reaction was stopped by adjusting the pH of each sample to 3 to 3.5 with 2M formic acid. Samples were extracted with three volumes of chloroform to isolate the products of 5-LO formed during the reaction. Fractions were dried under nitrogen, then resuspended in 40 μL of chloroform and spotted onto silica gel HL plates. The plates were developed in A-9 solvent. The dried plates were analyzed using a Bioscan Imaging TLC scanner to determine the percentage of radiolabelled AA converted to 5-HETE (LO product) in each sample. The percentage of inhibition was calculated by:
[1-(5-HETE test)]/5-HETE control×100=% inhibition
The IC50 was determined using a curve fit in Cricket Graph (Computer Associated), which provided the equation of the regressed line used in the calculation.

[2] = test system: 5-LO; assay: inhibition of 5-LO (5-HETE production) in intact RBL-1 cells (whole cell); format: cell-based, Rat; settings: Table A
Protocol: as §1
The ability to inhibit 5-LO and CO in intact RBL-1 cells was also evaluated. RBL-1 cells were maintained in culture in minimal essential medium (Bio*Whittaker, Walkersville, Md.), containing 12.5% fetal calf serum, 10 mg/mL streptomycin, 10 I.U./mL penicillin G, […] gentamycin and 2 mM L-glutamine (Bio*Whittaker, Walkersville, Md.). Cells were collected by centrifugation, washed once in HBSS, and resuspended at a concentration of 1×10^5 cells/mL. Cells were incubated in the presence of vehicle or drug then centrifuged at 800×g for 10 minutes at 4° C. The supernatant was removed by aspiration and the cells were resuspended in 0.5 mL of HBSS. The reaction was started by the addition of 20 μg/mL of calcium ionophore A 23187 (mixed calcium and magnesium salts, Calbiochem, La Jolla Calif.) and allowed to proceed for 15 minutes, then stopped by plunging the tubes into a slush ice bath. The conversion of AA to 5-LO products was initiated by the addition of 10 μL (50 uCi) of 1-^14 C-AA. Products were isolated by acidification and extraction, followed by thin layer chromatography analysis as described above. Radioactive areas corresponding to authentic 5-LO (5-HETE) and CO (PGD2) products were quantitated by the Bioscan 2000 Imaging System and the IC50 was calculated as above.

Row | Structure (SMILES) | Isolated Enzyme % Inhib. [1] | IC50 [2] | inhibition at 3 µM [1] | IC50 [1]
1 | COc1ccc(-n2nc(CCC(=O)O)cc2-c2ccc(OCc3ccc4ccccc4n3)cc2)cc1 [Cpd 14] | 24% | 2000 nM |  | 
2 | COC(=O)CCc1cc(-c2ccc(OCc3ccc4ccccc4n3)cc2)n(-c2ccccc2)n1 [Cpd 17] |  |  | 19% | 
3 | Cc1cc(-c2ccc(Cl)cc2)n(-c2ccc(OCc3ccc4ccccc4n3)cc2)n1 [Cpd 11] |  | 6500 nM | 32% | 
4 | CN(O)C(=O)CCc1cc(-c2ccc(Cl)cc2)n(-c2ccc(OCc3ccc4ccccc4n3)cc2)n1 [Cpd 22] |  | 1000 nM | 100% | 
5 | CCOC(=O)Cc1cc(-c2ccc(Cl)cc2)n(-c2ccc(OCc3ccc4ccccc4n3)cc2)n1 [Cpd 1] |  | 13400 nM | 29% | 
6 | COc1ccc(-n2nc(CCC(=O)N(C)O)cc2-c2ccc(OCc3ccc4ccccc4n3)cc2)cc1 [Cpd 16] |  | 540 nM | 87% | 
7 | O=C(O)CCc1cc(-c2ccc(Cl)cc2)n(-c2ccc(OCc3ccc4ccccc4n3)cc2)n1 [Cpd 15] |  | 5200 nM | 0% | 
8 | COc1ccc(-n2nc(CCC(=O)O)cc2-c2ccc(OCc3ccc4ccccc4n3)cc2)cc1 [Cpd 13] | 8% | 3900 nM |  | 
9 | OCCCc1cc(-c2ccc(Cl)cc2)n(-c2ccc(OCc3ccc4ccccc4n3)cc2)n1 [Cpd 20] |  | 840 nM | 21% | 

Now from value to compound:

Row | Isolated Enzyme % Inhib. [1] | IC50 [2] | inhibition at 3 µM [1] | IC50 [1] | Structure (SMILES)
10 |  |  | 0% |  | O=C(O)CCc1cc(-c2ccc(OCc3ccc4ccccc4n3)cc2)n(-c2ccc(Cl)cc2)n1 [Cpd 18]
11 |  | 1100 nM | 93% |  | CN(O)C(=O)OCCc1cc(-c2ccc(Cl)cc2)n(-c2ccc(OCc3ccc4ccccc4n3)cc2)n1 [Cpd 5, 5-(4-Chlorophenyl)-3-[2-(N-hydroxy-N-methylcarbamoyloxy)]ethyl]-1-[4-(2-quinolyl)methoxyphenyl]pyrazole.0.05 Hydrate]
12 |  | 390 nM | 15% |  | O=C(O)Cc1cc(-c2ccc(Cl)cc2)n(-c2ccc(OCc3ccc4ccccc4n3)cc2)n1 [Cpd 2, 2-[5-(4-Chlorophenyl)-1-(4-(2-quinolyl)methoxyphenyl)-pyrazol-3-yl]acetic acid]
13 |  | 1300 nM | 31% |  | OCCc1cc(-c2ccc(Cl)cc2)n(-c2ccc(OCc3ccc4ccccc4n3)cc2)n1 [Cpd 3]
14 |  | 1500 nM | 34% |  | CC(C)COC(=O)CCc1cc(-c2ccc(Cl)cc2)n(-c2ccc(OCc3ccc4ccccc4n3)cc2)n1 [Cpd 10]
15 |  | 550 nM | 44% |  | ON=CCCc1cc(-c2ccc(Cl)cc2)n(-c2ccc(OCc3ccc4ccccc4n3)cc2)n1 [Cpd 9, 5-(4-Chlorophenyl)-3-oximino 1-(4-(2-quinolyl)methoxy)phenyl)-pyrazol-3-yl]propanal.0.25 Hydrate]
16 |  | 5300 nM | 55% |  | ClCCc1cc(-c2ccc(Cl)cc2)n(-c2ccc(OCc3ccc4ccccc4n3)cc2)n1 [Cpd 4, 3-(2-Chloroethyl)-5-(4-chlorophenyl)-1-[4-(2-quinolyl)methoxyphenyl]pyrazole]
17 |  |  | 0% |  | O=C(O)CCc1cc(-c2ccc(OCc3ccc4ccccc4n3)cc2)n(-c2ccccc2)n1 [Cpd 19]
18 |  |  | 15% |  | CN(O)C(=O)CCc1cc(-c2ccc(OCc3ccc4ccccc4n3)cc2)n(-c2ccc(Cl)cc2)n1 [Cpd 21]
19 | 93% | 490 nM |  | 210 nM | CN(O)C(=O)CCc1cc(-c2ccc(Cl)cc2)n(-c2ccc(OCc3ccc4ccccc4n3)cc2)n1 [Cpd 7, 3-{5-(4-Chlorophenyl)-N-hydroxy-N-methyl-1-[4-(2-quinolyl)methoxyphenyl]pyrazol-3-yl}propanamide]
20 |  | 7400 nM | 19% |  | CCOC(=O)CCc1cc(-c2ccc(Cl)cc2)n(-c2ccc(OCc3ccc4ccccc4n3)cc2)n1 [Cpd 12]
21 |  | 3200 nM | 49% |  | O=CCCc1cc(-c2ccc(Cl)cc2)n(-c2ccc(OCc3ccc4ccccc4n3)cc2)n1 [Cpd 8]

Source: patent publication US5843958A, “Arylpyrazoles as leukotriene inhibitors” (Ortho Pharmaceutical Corporation, priority 1997, dated 1998)
